Assay results from patent publication US11464763B2, “Parasiticidal compositions comprising an isoxazoline active agent, methods and uses thereof” (BOEHRINGER INGELHEIM ANIMAL HEALTH USA INC., priority 2011, dated 2022).

Columns and labels:
Assay type in all cases: in vivo
Ixodes ricinus = experiment: Spot-on efficacy against induced Ixodes ricinus tick infestations in cats (Example 10); details: for prevention of the infestation of I. ricinus: 2.5% w/v in DMI
Experimental: The efficacy of spot-on formulations comprising Cmpd. A were studied against induced infestations of Ixodes ricinus ticks in cats. Three treatment groups with six cats per group were randomly allocated: Group 1—Control, untreated; Group 2—Cmpd. A (2.5% w/v in DMI) at 0.1 ml/kg body weight (2.5 mg/kg); and Group 3—Cmpd. A (5.0% w/v in DMI) at 0.1 ml/kg body weight (5 mg/kg). Treatment was administered once on Day 0 and efficacy was assessed based on 48-hour tick (I. ricinus) counts following weekly experimental challenge from Day 7 on. […] In fact, the topical spot-on formulation offered substantial protection against I. ricinus ticks until the last day of assessment—Day 93. Due to limitations on tick availability 5 mg/kg was tested only up to Day 44 with 100% efficacy. The excellent long-lasting efficacy of the formulation of the invention against I. ricinus ticks in cats is very surprising and unexpected.

Haematobia irritans = experiment: Pour-on efficacy against Haematobia irritans (horn fly) in cattle (Example 14); details: Group 2: pour-on 10% in DES, 1 ml/10 kg
Amblyomma americanum = experiment: Dose characterization of spot-on formulations against Amblyomma americanum ticks in dogs (Example 4)
Experimental: The efficacy of a spot-on composition of the invention comprising an isoxazoline compound (Cmpd. A) in a carrier vehicle comprising either DES alone or DES+lauryl lactate (LL), against ticks (Amblyomma americanum), in dogs was studied. The compositions contained 3.0%, 4.5%, or 6.0% Cmpd. A in either DES alone or DES+lauryl lactate, which delivered doses of […], respectively, of Cmpd. A to dogs infested with A. Americanum ticks.
Seven Treatment Groups were evaluated. Treatment Group 1 was administered a placebo formulation and served as a control. Treatment Groups 2, 3 and 4 were administered a topical formulation comprising 6.0% (w/v), 4.5% (w/v) and 3.0% (w/v) of Cmpd. A in DES, respectively, corresponding to doses of 4.0 mg/kg, 3.0 mg/kg and 2.0 mg/kg, respectively. Treatment Groups 5, 6 and 7 were administered a topical formulation comprising 6.0% (w/v), 4.5% (w/v) and 3.0% (w/v) of Cmpd. A in DES+9% lauryl lactate, respectively, corresponding to doses of […], 3.0 mg/kg and 2.0 mg/kg body weight Cmpd. A, respectively.
All dogs were treated once topically on Day 0 by parting the hair and applying the solution from a syringe directly onto the skin in a single spot on the midline of the neck between the base of the skull and the shoulder blades.
All dogs were infested with approximately 50 A. americanum on Days −1, 7, 14, 21, 28, 35 and 42. Ticks were counted upon removal on Days 2, 9, 16, 23, 30, 37 and 44. The % reduction of ticks for each Group is presented Table 5 below.

## O=C(CNC(=O)c1ccc(C2=NOC(c3cc(Cl)cc(C(F)(F)F)c3)(C(F)(F)F)C2)c2ccccc12)NCC(F)(F)F (centres unmarked) [Compound A, 4-[5-[3-chloro-5-(trifluoromethyl)phenyl]-4,5-dihydro-5-(trifluoromethyl)-3-isoxazolyl]-N-[2-oxo-2-[(2,2,2-trifluoroethyl)amino]ethyl]-1-naphthalanecarboxamide]
Ixodes ricinus; 5 mg/kg, up to Day 44
  efficacy against I. ricinus: 100%
Ixodes ricinus; 2.5 mg/kg, until Day 56
  prevention of the infestation of I. ricinus: completely prevented
Ixodes ricinus; 2.5 mg/kg, until at least Day 77
  prevention of the infestation of I. ricinus: > 90%
Ixodes ricinus; Group 2: 2.5% w/v in DMI, 2.5 mg/kg, Day 2
  % Reduction Ticks: 23.71%
Ixodes ricinus; Group 2: 2.5% w/v in DMI, 2.5 mg/kg, Day 9
  % Reduction Ticks: 100.00%
Ixodes ricinus; Group 2: 2.5% w/v in DMI, 2.5 mg/kg, Day 23
  % Reduction Ticks: 99.60%
Ixodes ricinus; Group 2: 2.5% w/v in DMI, 2.5 mg/kg, Day 30
  % Reduction Ticks: 100.00%
Ixodes ricinus; Group 2: 2.5% w/v in DMI, 2.5 mg/kg, Day 37
  % Reduction Ticks: 99.58%
Ixodes ricinus; Group 2: 2.5% w/v in DMI, 2.5 mg/kg, Day 44
  % Reduction Ticks: 100.00%
Ixodes ricinus; Group 2: 2.5% w/v in DMI, 2.5 mg/kg, Day 51
  % Reduction Ticks: 100.00%
Ixodes ricinus; Group 2: 2.5% w/v in DMI, 2.5 mg/kg, Day 58
  % Reduction Ticks: 100.00%
Ixodes ricinus; Group 2: 2.5% w/v in DMI, 2.5 mg/kg, Day 65
  % Reduction Ticks: 99.02%
Ixodes ricinus; Group 2: 2.5% w/v in DMI, 2.5 mg/kg, Day 72
  % Reduction Ticks: 99.21%
Ixodes ricinus; Group 2: 2.5% w/v in DMI, 2.5 mg/kg, Day 79
  % Reduction Ticks: 95.54%
Ixodes ricinus; Group 2: 2.5% w/v in DMI, 2.5 mg/kg, Day 86
  % Reduction Ticks: 84.92%
Ixodes ricinus; Group 2: 2.5% w/v in DMI, 2.5 mg/kg, Day 93
  % Reduction Ticks: 76.65%
Ixodes ricinus; Group 3: 5.0% w/v in DMI, 5 mg/kg, Day 2
  % Reduction Ticks: 70.27%
Ixodes ricinus; Group 3: 5.0% w/v in DMI, 5 mg/kg, Day 9
  % Reduction Ticks: 100.00%
Ixodes ricinus; Group 3: 5.0% w/v in DMI, 5 mg/kg, Day 23
  % Reduction Ticks: 100.00%
Ixodes ricinus; Group 3: 5.0% w/v in DMI, 5 mg/kg, Day 30
  % Reduction Ticks: 100.00%
Ixodes ricinus; Group 3: 5.0% w/v in DMI, 5 mg/kg, Day 37
  % Reduction Ticks: 100.00%
Ixodes ricinus; Group 3: 5.0% w/v in DMI, 5 mg/kg, Day 44
  % Reduction Ticks: 100.00%
Haematobia irritans; Day 35 (5 h)
  % Reduction: 42.6%
Haematobia irritans; Day 36 (24 h)
  % Reduction: 90.4%
Amblyomma americanum; Group 2: 6.0% in DES, 4.0 mg/kg, Day 2
  % Reduction Ticks: 97.4%
Amblyomma americanum; Group 2: 6.0% in DES, 4.0 mg/kg, Day 9
  % Reduction Ticks: 100.0%
Amblyomma americanum; Group 2: 6.0% in DES, 4.0 mg/kg, Day 16
  % Reduction Ticks: 100.0%
Amblyomma americanum; Group 2: 6.0% in DES, 4.0 mg/kg, Day 23
  % Reduction Ticks: 100.0%
Amblyomma americanum; Group 2: 6.0% in DES, 4.0 mg/kg, Day 30
  % Reduction Ticks: 82.5%
Amblyomma americanum; Group 2: 6.0% in DES, 4.0 mg/kg, Day 37
  % Reduction Ticks: 97.9%
Amblyomma americanum; Group 2: 6.0% in DES, 4.0 mg/kg, Day 44
  % Reduction Ticks: 84.2%
Amblyomma americanum; Group 3: 4.5% in DES, 3.0 mg/kg, Day 2
  % Reduction Ticks: 90.0%
Amblyomma americanum; Group 3: 4.5% in DES, 3.0 mg/kg, Day 9
  % Reduction Ticks: 100.0%
Amblyomma americanum; Group 3: 4.5% in DES, 3.0 mg/kg, Day 16
  % Reduction Ticks: 97.6%
Amblyomma americanum; Group 3: 4.5% in DES, 3.0 mg/kg, Day 23
  % Reduction Ticks: 82.0%
Amblyomma americanum; Group 3: 4.5% in DES, 3.0 mg/kg, Day 30
  % Reduction Ticks: 70.0%
Amblyomma americanum; Group 3: 4.5% in DES, 3.0 mg/kg, Day 37
  % Reduction Ticks: 80.4%
Amblyomma americanum; Group 3: 4.5% in DES, 3.0 mg/kg, Day 44
  % Reduction Ticks: 56.0%
Amblyomma americanum; Group 4: 3.0% in DES, 2.0 mg/kg, Day 2
  % Reduction Ticks: 95.4%
Amblyomma americanum; Group 4: 3.0% in DES, 2.0 mg/kg, Day 9
  % Reduction Ticks: 100.0%
Amblyomma americanum; Group 4: 3.0% in DES, 2.0 mg/kg, Day 16
  % Reduction Ticks: 100.0%
Amblyomma americanum; Group 4: 3.0% in DES, 2.0 mg/kg, Day 23
  % Reduction Ticks: 79.5%
Amblyomma americanum; Group 4: 3.0% in DES, 2.0 mg/kg, Day 30
  % Reduction Ticks: 90.3%
Amblyomma americanum; Group 4: 3.0% in DES, 2.0 mg/kg, Day 37
  % Reduction Ticks: 57.1%
Amblyomma americanum; Group 4: 3.0% in DES, 2.0 mg/kg, Day 44
  % Reduction Ticks: 38.8%
Amblyomma americanum; Group 5: 6.0% in DES+9% lauryl lactate, 4.0 mg/kg, Day 2
  % Reduction Ticks: 100.0%
Amblyomma americanum; Group 5: 6.0% in DES+9% lauryl lactate, 4.0 mg/kg, Day 9
  % Reduction Ticks: 100.0%
Amblyomma americanum; Group 5: 6.0% in DES+9% lauryl lactate, 4.0 mg/kg, Day 16
  % Reduction Ticks: 100.0%
Amblyomma americanum; Group 5: 6.0% in DES+9% lauryl lactate, 4.0 mg/kg, Day 23
  % Reduction Ticks: 94.3%
Amblyomma americanum; Group 5: 6.0% in DES+9% lauryl lactate, 4.0 mg/kg, Day 30
  % Reduction Ticks: 100.0%
Amblyomma americanum; Group 5: 6.0% in DES+9% lauryl lactate, 4.0 mg/kg, Day 37
  % Reduction Ticks: 89.0%
Amblyomma americanum; Group 5: 6.0% in DES+9% lauryl lactate, 4.0 mg/kg, Day 44
  % Reduction Ticks: 84.8%
Amblyomma americanum; Group 6: 4.5% in DES+9% lauryl lactate, 3.0 mg/kg, Day 2
  % Reduction Ticks: 98.4%
Amblyomma americanum; Group 6: 4.5% in DES+9% lauryl lactate, 3.0 mg/kg, Day 9
  % Reduction Ticks: 100.0%
Amblyomma americanum; Group 6: 4.5% in DES+9% lauryl lactate, 3.0 mg/kg, Day 16
  % Reduction Ticks: 100.0%
Amblyomma americanum; Group 6: 4.5% in DES+9% lauryl lactate, 3.0 mg/kg, Day 23
  % Reduction Ticks: 93.1%
Amblyomma americanum; Group 6: 4.5% in DES+9% lauryl lactate, 3.0 mg/kg, Day 30
  % Reduction Ticks: 92.1%
Amblyomma americanum; Group 6: 4.5% in DES+9% lauryl lactate, 3.0 mg/kg, Day 37
  % Reduction Ticks: 89.0%
Amblyomma americanum; Group 6: 4.5% in DES+9% lauryl lactate, 3.0 mg/kg, Day 44
  % Reduction Ticks: 53.6%
Amblyomma americanum; Group 7: 3.0% in DES+9% lauryl lactate, 2.0 mg/kg, Day 2
  % Reduction Ticks: 98.4%
Amblyomma americanum; Group 7: 3.0% in DES+9% lauryl lactate, 2.0 mg/kg, Day 9
  % Reduction Ticks: 100.0%
Amblyomma americanum; Group 7: 3.0% in DES+9% lauryl lactate, 2.0 mg/kg, Day 16
  % Reduction Ticks: 100.0%
Amblyomma americanum; Group 7: 3.0% in DES+9% lauryl lactate, 2.0 mg/kg, Day 23
  % Reduction Ticks: 80.6%
Amblyomma americanum; Group 7: 3.0% in DES+9% lauryl lactate, 2.0 mg/kg, Day 30
  % Reduction Ticks: 88.9%
Amblyomma americanum; Group 7: 3.0% in DES+9% lauryl lactate, 2.0 mg/kg, Day 37
  % Reduction Ticks: 74.6%
Amblyomma americanum; Group 7: 3.0% in DES+9% lauryl lactate, 2.0 mg/kg, Day 44
  % Reduction Ticks: 42.4%
Amblyomma americanum; Treatment Group 2 (4.0 mg/kg in DES alone), through Week 3
  efficacy against ticks: at least 90%
Amblyomma americanum; Treatment Groups 5 and 6 (4.0 and 3.0 mg/kg in DES+LL), through five weeks
  efficacy against ticks: at least 90%
